Measured values: ChEMBL document CHEMBL1201862, “PubChem BioAssay data set” (2004)
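Cultured in 96-well plates, cells were exposed to test compound for 48 hours across five concentrations. GI50 marks 50% less growth.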 Active and inactive are the calls of the source. Rule as the data show it: active = GI50 up to about 1.1 µM and inactive = higher.

Assays:
Test in all cases: DTP human tumour cell line panel, 48 h
A498 = system: A498
ACHN = system: ACHN
CAKI-1 = system: CAKI-1
COLO 205 = system: COLO 205
HCT-15 = system: HCT-15
HOP-92 = system: HOP-92
M14 = system: M14
MDA-MB-231 = system: MDA-MB-231
MDA-MB-435 = system: MDA-MB-435
Malme-3M = system: Malme-3M
NCI-H226 = system: NCI-H226
NCI-H522 = system: NCI-H522
OVCAR-3 = system: OVCAR-3
OVCAR-4 = system: OVCAR-4
RXF 393 = system: RXF 393
SK-OV-3 = system: SK-OV-3
SNB-19 = system: SNB-19
SNB-75 = system: SNB-75
UACC-257 = system: UACC-257

| SMILES | GI50 (A498) | GI50 (ACHN) | GI50 (CAKI-1) | GI50 (COLO 205) | GI50 (HCT-15) | GI50 (HOP-92) | GI50 (M14) | GI50 (MDA-MB-231) | GI50 (MDA-MB-435) | GI50 (Malme-3M) | GI50 (NCI-H226) | GI50 (NCI-H522) | GI50 (OVCAR-3) | GI50 (OVCAR-4) | GI50 (RXF 393) | GI50 (SK-OV-3) | GI50 (SNB-19) | GI50 (SNB-75) | GI50 (UACC-257) |
| --- | --- | --- | --- | --- | --- | --- | --- | --- | --- | --- | --- | --- | --- | --- | --- | --- | --- | --- | --- |
| COC(=O)/C=C\C(C#N)(C#N)/N=C/c1sccc1C | 14.8 µM (inactive) | 1.87 µM (inactive) | 1.93 µM (inactive) | 1.22 µM (inactive) | 1.96 µM | 1.91 µM (inactive) | 2.28 µM (inactive) | 0.589 µM (active) | 3.58 µM (inactive) | 3.18 µM (inactive) | 3.33 µM (inactive) | 0.268 µM (active) | 5.05 µM (inactive) | 4.53 µM (inactive) | 2 µM (inactive) | 18.4 µM (inactive) | 17.3 µM (inactive) | 14.8 µM (inactive) | 11.1 µM (inactive) |
| COC(=O)/C(=N/NC(N)=O)C(C(=O)C(=O)Nc1ccc(C)cc1)c1nc2ccc(C(=O)c3ccccc3)cc2nc1O (centres undefined) | 18.9 µM (inactive) | > 100 µM (inactive) | 88.9 µM (inactive) | > 100 µM (inactive) | > 100 µM | 30.3 µM (inactive) | > 100 µM (inactive) | > 100 µM (inactive) | 37 µM (inactive) | > 100 µM (inactive) | 40.9 µM (inactive) | 50.5 µM (inactive) | > 100 µM (inactive) | > 100 µM (inactive) | 61.9 µM (inactive) | > 100 µM (inactive) | > 100 µM (inactive) | 39.7 µM (inactive) | > 100 µM (inactive) |
| CC(=O)NNc1nc(C)c(C(/C=C/c2ccccc2O)=N/N=C(N)N)s1 | > 100 µM (inactive) | > 100 µM (inactive) | > 100 µM (inactive) | > 100 µM (inactive) | > 100 µM | > 100 µM (inactive) | > 100 µM (inactive) | > 100 µM (inactive) | > 100 µM (inactive) | > 100 µM (inactive) | > 100 µM (inactive) | > 100 µM (inactive) | > 100 µM (inactive) | > 100 µM (inactive) | > 100 µM (inactive) | > 100 µM (inactive) | > 100 µM (inactive) | > 100 µM (inactive) | > 100 µM (inactive) |
| Cn1cc2c(=O)n3ncn(-c4ccc(Br)cc4)c3nc2n1 | > 100 µM (inactive) | > 100 µM (inactive) | > 100 µM (inactive) | > 100 µM (inactive) | > 100 µM | > 100 µM (inactive) | > 100 µM (inactive) | > 100 µM (inactive) | > 100 µM (inactive) | > 100 µM (inactive) | > 100 µM (inactive) | > 100 µM (inactive) | > 100 µM (inactive) | > 100 µM (inactive) | > 100 µM (inactive) | > 100 µM (inactive) | > 100 µM (inactive) | > 100 µM (inactive) | > 100 µM (inactive) |
| Brc1cccc(C2ON=C(c3ccccc3)N2C23CC4CC(CC(C4)C2)C3)c1 (centres undefined) | > 10 µM (inactive) | > 10 µM (inactive) | > 10 µM (inactive) | > 10 µM (inactive) | > 10 µM | 5.42 µM (inactive) | > 10 µM (inactive) | > 10 µM (inactive) | > 10 µM (inactive) | > 10 µM (inactive) | > 10 µM (inactive) | > 10 µM (inactive) | > 10 µM (inactive) | > 10 µM (inactive) | > 10 µM (inactive) | > 10 µM (inactive) | > 10 µM (inactive) | 6.19 µM (inactive) | > 10 µM (inactive) |
| Cc1ccc([C@H]2CC(=O)C[C@H](c3ccc(C)cc3)C23C(=O)c2ccccc2C3=O)cc1 | > 100 µM (inactive) | 63.4 µM (inactive) | 68.2 µM (inactive) | 37.2 µM (inactive) | 34.8 µM | 13.6 µM (inactive) | 27.8 µM (inactive) | 54.7 µM (inactive) | 41.3 µM (inactive) | 46.7 µM (inactive) | 34.5 µM (inactive) | 3.23 µM (inactive) | 41.9 µM (inactive) | 18.6 µM (inactive) | 19.1 µM (inactive) | 31.6 µM (inactive) | 26.9 µM (inactive) | 15.8 µM (inactive) | 15.4 µM (inactive) |
